Data from PMC5829162, “Rational Design, Synthesis and Biological Evaluation of Pyrimidine-4,6-diamine derivatives as Type-II inhibitors of FLT3 Selective Against c-KIT” (Scientific Reports, 2018).
Several values for one entry are separate records, joined by “and”; a condition that tells them apart may be missing. Equal values may be shown once.

Tests used:
FLT3 kinase = target: T1, FLT3 kinase (Homo sapiens, UniProt P36888); assay: Biochemical enzyme inhibition assay (microfluidics, Caliper EZ Reader II), FLT3; details: for IC50: in vitro kinase assay, 60 min pre-incubation, ATP 190 µM, three independent experiments, read-out: FLT3 IC50 (nM) ± SD; for LE: ligand efficiency for FLT3 inhibition
T1 construct: purchased Invitrogen
T1 sequence (P36888 27-993): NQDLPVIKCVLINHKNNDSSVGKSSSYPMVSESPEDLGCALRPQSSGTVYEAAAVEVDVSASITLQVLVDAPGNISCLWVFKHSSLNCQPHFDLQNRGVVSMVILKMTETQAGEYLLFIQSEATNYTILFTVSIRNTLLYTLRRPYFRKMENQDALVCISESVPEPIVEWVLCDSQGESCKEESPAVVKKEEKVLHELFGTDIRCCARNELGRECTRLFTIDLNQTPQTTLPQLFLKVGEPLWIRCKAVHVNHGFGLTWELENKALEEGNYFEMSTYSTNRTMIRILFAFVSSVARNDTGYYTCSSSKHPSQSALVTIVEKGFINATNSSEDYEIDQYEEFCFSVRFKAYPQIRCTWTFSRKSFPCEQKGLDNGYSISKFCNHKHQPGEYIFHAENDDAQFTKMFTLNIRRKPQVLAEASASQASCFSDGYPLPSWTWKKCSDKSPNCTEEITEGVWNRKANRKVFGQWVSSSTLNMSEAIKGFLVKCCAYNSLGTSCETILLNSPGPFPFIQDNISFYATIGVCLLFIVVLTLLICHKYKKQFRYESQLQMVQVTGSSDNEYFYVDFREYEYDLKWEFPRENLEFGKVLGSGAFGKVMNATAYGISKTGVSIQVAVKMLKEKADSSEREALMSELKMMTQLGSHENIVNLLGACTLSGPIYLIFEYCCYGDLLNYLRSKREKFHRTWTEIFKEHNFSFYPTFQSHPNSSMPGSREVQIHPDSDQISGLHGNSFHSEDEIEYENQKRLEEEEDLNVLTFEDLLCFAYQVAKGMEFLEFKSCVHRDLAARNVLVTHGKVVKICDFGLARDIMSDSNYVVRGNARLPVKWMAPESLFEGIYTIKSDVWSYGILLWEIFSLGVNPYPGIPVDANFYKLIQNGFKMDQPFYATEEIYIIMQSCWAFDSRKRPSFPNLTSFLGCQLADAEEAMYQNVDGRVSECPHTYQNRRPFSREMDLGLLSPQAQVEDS
Procedure: Kinase activity was measured in a microfluidics assay that monitors the separation of a phosphorylated product from substrate[31],[32]. […] After, 1 μL was transferred into a 384-well polypropylene assay plate (Greiner, Frickenhausen, Germany). The FLT3 enzyme (Invitrogen™, Grand Island, USA) was diluted in kinase buffer to a concentration of 2 nM and 5 µL of the enzyme mixture was transferred to the assay plate. The inhibitors/FLT3 enzyme were incubated for 60 minutes with minor shaking. […] For positive control, no inhibitor was added. For negative control, no enzyme was added. For running control, quizartinib was utilized. The plate was run until 10–20% conversion based on the positive control wells. The following separation conditions were utilized: upstream voltage −500V; downstream voltage, −1900V; chip pressure −0.8. Percent inhibition was measured for each well comparing starting peptide to phosphorylated product peaks relative to the baseline. Dose response curves, spanning the IC50 dose, were generated in GraphPad Prisim 6 and fit to an exponential one-phase decay line and IC50 values were obtained from the half-life value of the curve. IC50 values were generated in duplicate and error was calculated from the standard deviation between values.
S10. Biochemical Inhibition Assay:1,2 Kinase activity was measured in a microfluidics assay that monitors the separation of a phosphorylated product from substrate. The assay was run using a 12-sipper chip on a Caliper EZ Reader II (PerkinElmer®, Walthman, USA) with separation […]
Walthman, USA]). In 96-well polypropylene plates (Greiner, Frickenhausen, Germany) […]
After, 1 μL was transferred into a 384-well polypropylene assay plate (Greiner, Frickenhausen, Germany). The FLT3 enzyme (Invitrogen™, Grand Island, USA) was diluted in kinase buffer to a concentration of 2 nM and 5 µL of the enzyme mixture was transferred to the assay plate. The inhibitors/FLT3 enzyme were incubated for 60 minutes with minor shaking. A substrate mix was prepared containing ATP (Ambresco®, Solon, USA) and […]
USA) dissolved in kinase buffer, and 5 µL of the substrate mix was added to the assay plate.
For positive control, no inhibitor was added. For negative control, no enzyme was added. For running control, quizartinib was utilized. The plate was run until 10-20% conversion based on the positive control wells. The following separation conditions were utilized: upstream voltage -500V; downstream voltage, -1900V; chip pressure - 0.8. Percent inhibition was measured for each well comparing starting peptide to phosphorylated product peaks relative to the baseline. Dose response curves, spanning the IC50 dose, were generated in GraphPad Prisim 6 and fit to an exponential one-phase decay line and IC50 values were obtained from the half-life value of the curve. IC50 values were generated in duplicate and error was calculated from the standard deviation between values. […]

| melting point [°C] | IC50 (FLT3 kinase) | LE (FLT3 kinase) | fold less active than 13a on FLT3 (FLT3 kinase; enzymatic FLT3 IC50 compared with 13a) [fold] | Compound |
| --- | --- | --- | --- | --- |
| 228 to 230 | 7878 ± 29 nM | 0.20 |  | CS(=O)(=O)c1ccc(Nc2cc(Oc3ccc(CC(=O)Nc4cccc(F)c4)cc3)ncn2)cc1 [13aa, 2-(4-(6-(4-(Methylsulfonyl)phenylamino)pyrimidin-4-yloxy)phenyl)-N-(3-fluorophenyl)acetamide] |
|  | 9170 ± 236 nM | 0.19 |  | O=C(Cc1ccc(Nc2cc(NCCCN3CCCC3)ncn2)cc1)Nc1cccc(C(F)(F)F)c1 [13ab, 2-(4-(6-(3-(Pyrrolidin-1-yl)propylamino)pyrimidin-4-ylamino)phenyl)-N-(3-(trifluoromethyl)phenyl)acetamide] |
|  | 11710 ± 106 nM | 0.19 |  | CS(=O)(=O)c1ccc(Nc2cc(Nc3ccc(CC(=O)Nc4cccc(F)c4)cc3)ncn2)cc1 [13ac, 2-(4-(6-(4-(Methylsulfonyl)phenylamino)pyrimidin-4-ylamino)phenyl)-N-(3-fluorophenyl)acetamide] |
| 124 to 126 | 12800 ± 834 nM | 0.26 |  | CNc1cc(Oc2ccc(CC(=O)Nc3ccc(F)cc3)cc2)ncn1 [13ad, 2-(4-(6-(Methylamino)pyrimidin-4-yloxy)phenyl)-N-(4-fluorophenyl)acetamide] |
| 110 to 112 | 5550 ± 169 nM | 0.23 |  | CS(=O)(=O)c1ccc(Nc2cc(Nc3ccc(CC(=O)NC4CC4)cc3)ncn2)cc1 [13ae, 2-(4-(6-(4-(Methylsulfonyl)phenylamino)pyrimidin-4-ylamino)phenyl)-N-cyclopropylacetamide] |
|  | 8060 ± 274 nM | 0.23 |  | O=C(Cc1ccc(Nc2cc(Nc3cccc(C(F)(F)F)c3)ncn2)cc1)NC1CC1 [13af, 2-(4-(6-(3-(Trifluoromethyl)phenylamino)pyrimidin-4-ylamino)phenyl)-N-cyclopropylacetamide] |
|  | 13560 ± 102 nM | 0.25 |  | CN1CCN(c2cc(Nc3ccc(CC(=O)NC4CC4)cc3)ncn2)CC1 [13ah, 2-(4-(6-(4-Methylpiperazin-1-yl)pyrimidin-4-ylamino)phenyl)-N-cyclopropyl acetamide] |
| 110 to 112 | 15100 ± 168 nM | 0.25 |  | O=C(Cc1ccc(Nc2cc(N3CCOCC3)ncn2)cc1)NC1CC1 [13ai, 2-(4-(6-Morpholinopyrimidin-4-ylamino)phenyl)-N-cyclopropylacetamide] |
| 102 to 104 | 7580 ± 132 nM | 0.23 |  | CCCCNc1cc(Oc2ccc(CC(=O)Nc3nc(C(C)(C)C)cs3)cc2)ncn1 [13aj, 2-(4-(6-(Butylamino)pyrimidin-4-yloxy)phenyl)-N-(4-tert-butylthiazol-2-yl)acetamide] |
| 102 to 104 | 13600 ± 494 nM | 0.16 |  | COc1ccc(CNC(=O)Cc2ccc(Oc3cc(NC4CCN(Cc5ccccc5)CC4)ncn3)cc2)c(OC)c1 [13ak, N-(2,4-Dimethoxybenzyl)-2-(4-(6-(1-benzylpiperidin-4-ylamino)pyrimidin-4-yloxy)phenyl)acetamide] |
|  | 129.3 ± 0.9 nM | 0.26 |  | Cn1nc(C(C)(C)C)cc1NC(=O)Cc1ccc(Nc2cc(NCCCN3CCCCC3)ncn2)cc1 [13c, 2-(4-(6-(3-(Piperidin-1-yl)propylamino)pyrimidin-4-ylamino)phenyl)-N-(3-tert-butyl-1-methyl-1H-pyrazol-5-yl)acetamide] |
|  | 268 ± 25 nM | 0.24 |  | Cn1nc(C(C)(C)C)cc1NC(=O)Cc1ccc(Oc2cc(Nc3ccc(S(C)(=O)=O)cc3)ncn2)cc1 [13e, 2-(4-(6-(4-(Methylsulfonyl)phenylamino)pyrimidin-4-yloxy)phenyl)-N-(3-tert-butyl-1-methyl-1H-pyrazol-5-yl)acetamide] |
| 140 to 142 | 961 ± 33.7 nM | 0.22 |  | Cn1nc(C(C)(C)C)cc1NC(=O)Cc1ccc(Oc2cc(Nc3cccc(C(F)(F)F)c3)ncn2)cc1 [13f, 2-(4-(6-(3-(Trifluoromethyl)phenylamino)pyrimidin-4-yloxy)phenyl)-N-(3-tert-butyl-1-methyl-1H-pyrazol-5-yl)acetamide] |
| 168 to 170 | 3230 ± 556 nM | 0.17 |  | CC(C)(C)c1cc(NC(=O)Cc2ccc(Nc3cc(Nc4ccc(S(C)(=O)=O)cc4)ncn3)cc2)n(-c2ccc(F)cc2)n1 [13g, 2-(4-(6-(4-(Methylsulfonyl)phenylamino)pyrimidin-4-ylamino)phenyl)-N-(3-tert-butyl-1-(4-fluorophenyl)-1H-pyrazol-5-yl)acetamide] |
| 155 to 157 | 4840 ± 170 nM | 0.16 |  | Cc1ccc(-n2nc(C(C)(C)C)cc2NC(=O)Cc2ccc(Nc3cc(Nc4ccc(S(C)(=O)=O)cc4)ncn3)cc2)cc1 [13h, 2-(4-(6-(4-(Methylsulfonyl)phenylamino)pyrimidin-4-ylamino)phenyl)-N-(3-tert-butyl-1-p-tolyl-1H-pyrazol-5-yl)acetamide] |
|  | 428 ± 99 nM | 0.27 |  | Cn1nc(C(C)(C)C)cc1NC(=O)Cc1ccc(Nc2cc(N3CCOCC3)ncn2)cc1 [13i, 2-(4-(6-Morpholinopyrimidin-4-ylamino)phenyl)-N-(3-tert-butyl-1-methyl-1H-pyrazol-5-yl)acetamide] |
| 110 to 112 | 6020 ± 122 nM | 0.18 |  | CN1CCN(c2cc(Nc3ccc(CC(=O)Nc4cc(C(C)(C)C)nn4-c4ccc(Br)cc4)cc3)ncn2)CC1 [13j, 2-(4-(6-(4-Methylpiperazin-1-yl)pyrimidin-4-ylamino)phenyl)-N-(3-tert-butyl-1-(4-bromophenyl)-1H-pyrazol-5-yl)acetamide] |
| 120 to 122 | 567 nM and 568 nM | 0.23 |  | CC(C)(C)c1cc(NC(=O)Cc2ccc(Oc3cc(Nc4cccc(C(F)(F)F)c4)ncn3)cc2)no1 [13l, 2-(4-(6-(3-(Trifluoromethyl)phenylamino)pyrimidin-4-yloxy)phenyl)-N-(5-tert-butylisoxazol-3-yl)acetamide] |
|  | 6460 ± 251 nM | 0.19 |  | O=C(Cc1ccc(Nc2cc(NCCCN3CCCCC3)ncn2)cc1)Nc1ccc(OC(F)(F)F)cc1 [13y, 2-(4-(6-(3-(Piperidin-1-yl)propylamino)pyrimidin-4-ylamino)phenyl)-N-(4-(trifluoromethoxy)phenyl)acetamide] |
|  | 5720 nM |  | > 100 | Cn1nc(C(C)(C)C)cc1NC(=O)Cc1ccc(Nc2cccc(Nc3ccc(S(C)(=O)=O)cc3)n2)cc1 [compound 18, 2-(4-(6-(4-(Methylsulfonyl)phenylamino)pyridin-2-ylamino)phenyl)-N-(3-tert-butyl-1-methyl-1H-pyrazol-5-yl)acetamide] |

| Compound | melting point [°C] | IC50 (FLT3 kinase) | LE (FLT3 kinase) | fold less active than 13a on FLT3 (FLT3 kinase; enzymatic FLT3 IC50 compared with 13a) [fold] |
| --- | --- | --- | --- | --- |
| N-(4-Fluorobenzyl)-2-(4-(6-(3-(pyrrolidin-1-yl)propylamino)pyrimidin-4-yloxy)phenyl)acetamide [13w] |  | 4560 ± 330 nM | 0.21 |  |
